The values that follow come from the Kinase Knowledgebase extract (Sharma et al. 2016).

The test addresses CDK2 (UniProt P24941). Nature of the test: Enzyme Assay. Conditions: for inhibition: concentration not given here.

Take `O=C1CCCCn2cc(c3cccnc32)C2=C(C(=O)NC2=O)c2cn(c3ncccc23)CCCC1`: the Ki was 1230 nM and the inhibition is 50%.

`O=C1NC(=O)C2=C1c1cn(c3ncccc13)CCCCC(O)CCCCn1cc2c2cccnc21` gave a Ki of 682 nM and an inhibition of 57%.

The compound `O=C1NC(=O)C2=C1c1cn(c3ncccc13)CCCC1=CC=C(CCCn3cc2c2cccnc23)S1` had an inhibition of 20%.

One may read the Ki as a dissociation constant, usually derived from enzyme kinetics or from competition with a known ligand. Broadly, the inhibition is the share of the control response that was lost under treatment. Higher therefore signals strong suppression.
